Experimental data as given in patent publication US5206241A, “Labdanes and process for their preparation” (Hoechst Aktiengesellschaft, priority 1990, dated 1993).
Converted amounts (≈) assume the structure as drawn. Structures can show the parent of a compound that is named as a salt.

How the values were obtained:
[1] = tested on: intraocular pressure (IOP) in conscious rabbits; experiment: Measurement of the intraocular pressure in conscious rabbits; assay type: in vivo, rabbit; conditions: 2% solution, 100 μl into one eye; for IOP-Lowering Effect, % decrease in IOP: Schioetz tonometer, relative to initial value; for IOP-Lowering Effect, Duration: unit of duration not given
Method: For this experiment rabbits of both sexes and weighin 2 to 3 kg are used. The intraocular pressure (IOP) is measured with a Schioetz tonometer after corneal anaesthesia with a 2% novocaine solution. A 2% solution of a compound according to the invention is prepared, using the stoichiometric amount of 0.1N HCl, by dissolving it or its salt directly in water. After the initial value has been determined, 100 μl of the solution of the test compound are […] into one of the eyes, and the vehicle is instilled into the other eye. The IOP is measured at defined time intervals, i.e. 0.5, 1, 2, 3, 4 and 5 hours. The percentage decreases in the IOP is calculated using the initial value.

Guinea pig atrium = experiment: Positive inotropic activity, electrically stimulated isolated guinea pig atrium; conditions: contractility of isolated atrium, Ringer's solution, 32° C., recorded 7 to 10 minutes; for EC50: Cavia porcellus
Method: Guinea pigs of both sexes and weighing 400 g are sacrificed, and the heart is removed and placed in Ringer's solution at room temperature. Both the left and the right atria are then isolated, fixed in an organ holder and placed in a bath containing Ringer's solution and maintained at a temperature of 32° C. A mixture of 95% O2 and 5% CO2 is bubbled through the organ bath. Electrical stimulation of the atrium is then carried out. A compound according to the invention is dissolved in water to give a solution of known concentration and is added to the bath. The contractility of the atrium is recorded for 7 to 10 minutes via an […] strain gage on a Nihon Kohden 4-channel pen recorder. The activity is expressed on the basis of the resulting data as the EC50.
Data for compounds disclosed in Indian Patent No. 163 242 are also provided for comparison.

## C=C[C@@]1(C)CC(=O)[C@]2(O)[C@@]3(C)[C@@H](O)CCC(C)(C)[C@@H]3[C@H](OC(=O)CCN3CCN(C)CC3)[C@H](OC(=O)COCC)[C@@]2(C)O1
[1]
  IOP-Lowering Effect, % decrease in IOP: 32%
  IOP-Lowering Effect, Duration: > 360

## C=C[C@@]1(C)CC(=O)[C@]2(O)[C@@]3(C)[C@@H](O)CCC(C)(C)[C@@H]3[C@H](OC(=O)CCN3CCOCC3)[C@H](O)[C@@]2(C)O1 [reference compound]
Guinea pig atrium
  Guinea pig atrium EC50: Not active

## C=C[C@@]1(C)CC(=O)[C@]2(O)[C@@]3(C)[C@@H](O)CCC(C)(C)[C@@H]3[C@H](OC(=O)CN3CCCCC3)[C@H](O)[C@@]2(C)O1 [drawing 36, reference compound]
Guinea pig atrium
  EC50: 1.8 µg/mL (≈ 3.65 µM)

## C=C[C@@]1(C)CC(=O)[C@]2(O)[C@@]3(C)[C@@H](O)CCC(C)(C)[C@@H]3[C@H](OC(=O)CCN(C)C)[C@H](OC(=O)COC)[C@@]2(C)O1 [CO(CH2)2 N(CH3)2.2HCl, COCH2 OCH3, 1α,9α-Dihydroxy-6β-(3-N,N-dimethylamino-propionyloxy)-8,13-epoxy-7β-methoxy-acetoxy-labd-14-en-11-one]
Guinea pig atrium
  EC50: 0.024 µg/mL

## C=C[C@@]1(C)CC(=O)[C@]2(O)[C@@]3(C)[C@@H](O)CCC(C)(C)[C@@H]3[C@H](OC(=O)CCN3CCOCC3)[C@H](OC(=O)COCC)[C@@]2(C)O1 [drawing 34]
Guinea pig atrium
  EC50: 0.044 µg/mL (≈ 0.0739 µM)

## C=C[C@@]1(C)CC(=O)[C@]2(O)[C@@]3(C)[C@@H](O)CCC(C)(C)[C@@H]3[C@H](OC(=O)CCN3CCCCC3)[C@H](OC(=O)COc3ccccc3)[C@@]2(C)O1
[1]
  IOP-Lowering Effect, % decrease in IOP: 31%
  IOP-Lowering Effect, Duration: 300

## C=C[C@@]1(C)CC(=O)[C@]2(O)[C@@]3(C)[C@@H](O)CCC(C)(C)[C@@H]3[C@H](OC(=O)CN3CCCCC3)[C@H](O)[C@@]2(C)O1 [drawing 41, reference compound]
[1]
  IOP-Lowering Effect, % decrease in IOP: Not active

## C=C[C@@]1(C)CC(=O)[C@]2(O)[C@@]3(C)[C@@H](O)CCC(C)(C)[C@@H]3[C@H](OC(=O)CCN3CCOCC3)[C@H](OC(=O)COCC)[C@@]2(C)O1 [drawing 39]
[1]
  IOP-Lowering Effect, % decrease in IOP: 31%
  IOP-Lowering Effect, Duration: > 360

## C=C[C@@]1(C)CC(=O)[C@]2(O)[C@@]3(C)[C@@H](O)CCC(C)(C)[C@@H]3[C@H](OC(=O)COC)[C@H](OC(=O)CCN(C)C)[C@@]2(C)O1 [COCH2 OCH3, CO(CH2)2 NMe2.HCl, 1α,9α-Dihydroxy-7β-(3-N,N-dimethylamino-propionyloxy)-8,13-epoxy-6β-methoxyacetoxy-labd-14-en-11-one]
Guinea pig atrium
  EC50: 0.77 µg/mL
